Among the data in US10538555B2, “Macrocyclic inhibitors of the PD-1/PD-L1 and CD80(B7-1)/PD-L1 protein/protein interactions” (BRISTOL-MYERS SQUIBB COMPANY, priority 2014, dated 2020) are IC50 values, retold here.

The assay deals with T1, Human PD-L1/PD-1 (Homo sapiens, UniProt Q9NZQ7).
T1 construct: TVMV protease cleavage site (C); made in house; host or cells: HEK293T cells
Description: HTRF Human PD-L1/PD-1 binding assay (PD-1-Ig/PD-L1-His). Conditions: PD-L1-His 10 nM, PD-1-Ig 20 nM. The gist of the method: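 Soluble HEK293T-expressed proteins: hPD-L1-His 10 nM, hPD-1-Ig 20 nM final. Cpd + PD-L1 15 min, + PD-1 15 min, + Eu anti-Ig 1 nM/APC anti-His 20 nM 30 min. Buffer dPBS, 0.1% BSA, 0.05% Tween-20. TR-FRET 665/620.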
For orientation: Time-resolved FRET reads energy transfer from a long-lived donor to a nearby acceptor.

The mark [1] stands for this setting: class symbol, read-out: HTRF Human PD-L1/PD-1 Binding Assay IC50 Range.

Read-outs that look alike come from different tables or passages of the source. Where a SMILES comes first, the peptide text is derived from it. Bridges are numbered along the chain shown (N, C = ends). [ ]: non-standard residue; d: D form. Phe(3,4,5-F3) = N[C@@H](Cc1cc(F)c(F)c(F)c1)C(=O)O; Phe(4-F) = N[C@@H](Cc1ccc(F)cc1)C(=O)O; NMeF = CN[C@@H](Cc1ccccc1)C(=O)O; dPip(4-aza) = O=C(O)[C@H]1CNCCN1; NMeNle = CCCC[C@H](NC)C(=O)O; hSer = N[C@@H](CCO)C(=O)O; Orn = NCCC[C@H](N)C(=O)O; dThz = O=C(O)[C@H]1CSCN1

T1 sequence (Q9NZQ7 with tags, fused parts or gaps): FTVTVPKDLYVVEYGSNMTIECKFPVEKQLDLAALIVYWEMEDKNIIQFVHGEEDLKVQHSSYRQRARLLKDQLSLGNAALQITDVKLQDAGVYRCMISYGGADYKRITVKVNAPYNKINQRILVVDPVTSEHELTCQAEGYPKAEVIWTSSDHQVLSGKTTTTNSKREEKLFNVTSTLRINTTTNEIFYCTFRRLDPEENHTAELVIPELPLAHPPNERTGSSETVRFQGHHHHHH

`CCCC[C@H]1C(=O)N2CCC[C@@H]2C(=O)N[C@@H](CO)C(=O)N[C@@H](C(C)C)C(=O)N(C)[C@@H](Cc2ccccc2)C(=O)N[C@@H](Cc2ccc(O)cc2)C(=O)N2CSC[C@@H]2C(=O)N[C@@H](Cc2c[nH]c3ccccc23)C(=O)N[C@@H](Cc2ccc(O)cc2)C(=O)N[C@@H](CC(C)C)C(=O)N[C@H](C(=O)NCC(N)=O)CSCC(=O)N[C@@H](Cc2cc(F)c(F)c(F)c2)C(=O)N(C)[C@@H](Cc2ccccc2)C(=O)N1C` [Example 10089] ({CH2CO}-[Phe(3,4,5-F3)][NMeF][NMeNle][dP]SV[NMeF]Y[dThz]WYLCG-NH2; thioether N-13): the IC50 under setting [1] was in the range of 1 to 9.9 nM.

For `CCCC[C@H]1C(=O)N2CCC[C@@H]2C(=O)N[C@@H](CC(=O)O)C(=O)N[C@@H](C(C)C)C(=O)N(C)[C@@H](Cc2ccccc2)C(=O)N[C@@H](CCC(=O)O)C(=O)N2CSC[C@@H]2C(=O)N[C@@H](Cc2c[nH]c3ccccc23)C(=O)N[C@@H](Cc2ccc(O)cc2)C(=O)N[C@@H](CC(C)C)C(=O)N[C@H](C(=O)NCC(N)=O)CSCC(=O)N[C@@H](Cc2cc(F)c(F)c(F)c2)C(=O)N(C)[C@@H](Cc2ccccc2)C(=O)N1C` [Example 10090] ({CH2CO}-[Phe(3,4,5-F3)][NMeF][NMeNle][dP]DV[NMeF]E[dThz]WYLCG-NH2; thioether N-13), the IC50 under setting [1] is 1 to 9.9 nM. For `CCCC[C@H]1C(=O)N2CCC[C@@H]2C(=O)N[C@@H](CC(=O)O)C(=O)N[C@@H](C(C)C)C(=O)N(C)[C@@H](Cc2ccccc2)C(=O)N[C@@H](CC(=O)O)C(=O)N2CSC[C@@H]2C(=O)N[C@@H](Cc2c[nH]c3ccccc23)C(=O)N[C@@H](Cc2ccc(O)cc2)C(=O)N[C@@H](CC(C)C)C(=O)N[C@H](C(=O)NCC(N)=O)CSCC(=O)N[C@@H](Cc2cc(F)c(F)c(F)c2)C(=O)N(C)[C@@H](Cc2ccccc2)C(=O)N1C` [Example 10091] ({CH2CO}-[Phe(3,4,5-F3)][NMeF][NMeNle][dP]DV[NMeF]D[dThz]WYLCG-NH2; thioether N-13), the IC50 (read-out: HTRF Human PD-L1/PD-1 Binding Assay IC50) was determined as 2.5 nM. For `CCCC[C@H]1C(=O)N2CCC[C@@H]2C(=O)N[C@@H](CC(=O)O)C(=O)N[C@@H](C(C)C)C(=O)N(C)[C@@H](Cc2ccccc2)C(=O)N[C@@H](Cc2ccc(O)cc2)C(=O)N2CSC[C@@H]2C(=O)N[C@@H](Cc2c[nH]c3ccccc23)C(=O)N[C@@H](Cc2ccc(O)cc2)C(=O)N[C@@H](CC(C)C)C(=O)N[C@H](C(=O)NCC(N)=O)CSCC(=O)N[C@@H](Cc2cc(F)c(F)c(F)c2)C(=O)N(C)[C@@H](Cc2ccccc2)C(=O)N1C` [Example 10092] ({CH2CO}-[Phe(3,4,5-F3)][NMeF][NMeNle][dP]DV[NMeF]Y[dThz]WYLCG-NH2; thioether N-13), the IC50 under setting [1] was in the range of 1 to 9.9 nM. For the compound `CCCC[C@H]1C(=O)N2CSC[C@@H]2C(=O)N[C@@H](CC(=O)O)C(=O)N[C@@H](C(C)C)C(=O)N(C)[C@@H](Cc2ccccc2)C(=O)N[C@@H](Cc2ccc(O)cc2)C(=O)N2CCC[C@@H]2C(=O)N[C@@H](Cc2c[nH]c3ccccc23)C(=O)N[C@@H](Cc2ccc(O)cc2)C(=O)N[C@@H](CC(C)C)C(=O)N[C@H](C(=O)NCC(N)=O)CSCC(=O)N[C@@H](Cc2cc(F)c(F)c(F)c2)C(=O)N(C)[C@@H](Cc2ccccc2)C(=O)N1C` [Example 10093] ({CH2CO}-[Phe(3,4,5-F3)][NMeF][NMeNle][dThz]DV[NMeF]Y[dP]WYLCG-NH2; thioether N-13), the IC50 under setting [1] lay within 1 to 9.9 nM.

For the compound `CCCC[C@H]1C(=O)N2CCC[C@@H]2C(=O)N[C@@H](CC(=O)O)C(=O)N[C@@H](C(C)C)C(=O)N(C)[C@@H](Cc2ccccc2)C(=O)N[C@@H](Cc2ccc(O)cc2)C(=O)N2CCC[C@@H]2C(=O)N[C@@H](Cc2c[nH]c3ccccc23)C(=O)N[C@@H](Cc2ccc(O)cc2)C(=O)N[C@@H](CO)C(=O)N[C@H](C(=O)NCC(N)=O)CSCC(=O)N[C@@H](Cc2cc(F)c(F)c(F)c2)C(=O)N(C)[C@@H](Cc2ccccc2)C(=O)N1C` [Example 10094] ({CH2CO}-[Phe(3,4,5-F3)][NMeF][NMeNle][dP]DV[NMeF]Y[dP]WYSCG-NH2; thioether N-13), under setting [1], the IC50 lay within 1 to 9.9 nM. In the case of `CCCC[C@H]1C(=O)N2CCC[C@@H]2C(=O)N[C@@H](CC(=O)O)C(=O)N[C@@H](C(C)C)C(=O)N(C)[C@@H](Cc2ccccc2)C(=O)N[C@@H](Cc2ccc(O)cc2)C(=O)N2CCC[C@@H]2C(=O)N[C@@H](Cc2c[nH]c3ccccc23)C(=O)N[C@@H](Cc2ccc(O)cc2)C(=O)N[C@@H](CCO)C(=O)N[C@H](C(=O)NCC(N)=O)CSCC(=O)N[C@@H](Cc2cc(F)c(F)c(F)c2)C(=O)N(C)[C@@H](Cc2ccccc2)C(=O)N1C` [Example 10095] ({CH2CO}-[Phe(3,4,5-F3)][NMeF][NMeNle][dP]DV[NMeF]Y[dP]WY[hSer]CG-NH2; thioether N-13), the IC50 under setting [1] was 1 to 9.9 nM.

Turning to `CCCC[C@H]1C(=O)N2CCC[C@@H]2C(=O)N[C@@H](CC(=O)O)C(=O)N[C@@H](C(C)C)C(=O)N(C)[C@@H](Cc2ccccc2)C(=O)N[C@@H](Cc2ccc(O)cc2)C(=O)N2CCC[C@@H]2C(=O)N[C@@H](Cc2c[nH]c3ccccc23)C(=O)N[C@@H](Cc2ccc(O)cc2)C(=O)N[C@@H](CCCCN)C(=O)N[C@H](C(=O)NCC(N)=O)CSCC(=O)N[C@@H](Cc2cc(F)c(F)c(F)c2)C(=O)N(C)[C@@H](Cc2ccccc2)C(=O)N1C` [Example 10096] ({CH2CO}-[Phe(3,4,5-F3)][NMeF][NMeNle][dP]DV[NMeF]Y[dP]WYKCG-NH2; thioether N-13), the IC50 under setting [1] was in the range of 1 to 9.9 nM. Still for that read-out and setting: the same measure for `CCCC[C@H]1C(=O)N2CCC[C@@H]2C(=O)N[C@@H](CC(=O)O)C(=O)N[C@@H](C(C)C)C(=O)N(C)[C@@H](Cc2ccccc2)C(=O)N[C@@H](Cc2ccc(O)cc2)C(=O)N2CCC[C@@H]2C(=O)N[C@@H](Cc2c[nH]c3ccccc23)C(=O)N[C@@H](Cc2ccc(O)cc2)C(=O)N[C@@H](CCC(=O)O)C(=O)N[C@H](C(=O)NCC(N)=O)CSCC(=O)N[C@@H](Cc2cc(F)c(F)c(F)c2)C(=O)N(C)[C@@H](Cc2ccccc2)C(=O)N1C` [Example 10097] ({CH2CO}-[Phe(3,4,5-F3)][NMeF][NMeNle][dP]DV[NMeF]Y[dP]WYECG-NH2; thioether N-13): 1 to 9.9 nM; for `CCCC[C@H]1C(=O)N2CCC[C@@H]2C(=O)N[C@@H](CC(=O)O)C(=O)N[C@@H](C(C)C)C(=O)N(C)[C@@H](Cc2ccccc2)C(=O)N[C@@H](Cc2ccc(O)cc2)C(=O)N2CCC[C@@H]2C(=O)N[C@@H](Cc2c[nH]c3ccccc23)C(=O)N[C@@H](Cc2ccc(O)cc2)C(=O)N[C@@H](CCCN)C(=O)N[C@H](C(=O)NCC(N)=O)CSCC(=O)N[C@@H](Cc2cc(F)c(F)c(F)c2)C(=O)N(C)[C@@H](Cc2ccccc2)C(=O)N1C` [Example 10098] ({CH2CO}-[Phe(3,4,5-F3)][NMeF][NMeNle][dP]DV[NMeF]Y[dP]WY[Orn]CG-NH2; thioether N-13): 1 to 9.9 nM; for `CCCC[C@H]1C(=O)N2CCC[C@@H]2C(=O)N[C@@H](CC(=O)O)C(=O)N[C@@H](C(C)C)C(=O)N(C)[C@@H](Cc2ccccc2)C(=O)N[C@@H](Cc2ccc(O)cc2)C(=O)N2CCC[C@@H]2C(=O)N[C@@H](Cc2c[nH]c3ccccc23)C(=O)N[C@@H](Cc2ccc(O)cc2)C(=O)N[C@@H](CC(=O)O)C(=O)N[C@H](C(=O)NCC(N)=O)CSCC(=O)N[C@@H](Cc2cc(F)c(F)c(F)c2)C(=O)N(C)[C@@H](Cc2ccccc2)C(=O)N1C` [Example 10099] ({CH2CO}-[Phe(3,4,5-F3)][NMeF][NMeNle][dP]DV[NMeF]Y[dP]WYDCG-NH2; thioether N-13): 1 to 9.9 nM. On to `CCCC[C@H]1C(=O)N2CCC[C@@H]2C(=O)N[C@@H](CC(=O)O)C(=O)N[C@@H](C(C)C)C(=O)N(C)[C@@H](Cc2ccccc2)C(=O)N[C@@H](Cc2ccc(O)cc2)C(=O)N2CCNC[C@@H]2C(=O)N[C@@H](Cc2c[nH]c3ccccc23)C(=O)N[C@@H](Cc2ccc(O)cc2)C(=O)N[C@@H](CC(C)C)C(=O)N[C@H](C(=O)NCC(N)=O)CSCC(=O)N[C@@H](Cc2cc(F)c(F)c(F)c2)C(=O)N(C)[C@@H](Cc2ccccc2)C(=O)N1C` [Example 10100] ({CH2CO}-[Phe(3,4,5-F3)][NMeF][NMeNle][dP]DV[NMeF]Y[dPip(4-aza)]WYLCG-NH2; thioether N-13), for which the IC50 under setting [1] was in the range of 1 to 9.9 nM.

As for `CCCC[C@H]1C(=O)N2CCC[C@@H]2C(=O)N[C@@H](CC(=O)O)C(=O)N[C@@H](C(C)C)C(=O)N(C)[C@@H](Cc2ccccc2)C(=O)N[C@@H](CCCN)C(=O)N2CCC[C@@H]2C(=O)N[C@@H](Cc2c[nH]c3ccccc23)C(=O)N[C@@H](Cc2ccc(O)cc2)C(=O)N[C@@H](CC(C)C)C(=O)N[C@H](C(=O)NCC(N)=O)CSCC(=O)N[C@@H](Cc2ccc(F)cc2)C(=O)N(C)[C@@H](Cc2ccccc2)C(=O)N1C` [Example 10102] ({CH2CO}-[Phe(4-F)][NMeF][NMeNle][dP]DV[NMeF][Orn][dP]WYLCG-NH2; thioether N-13), the IC50 under setting [1] is 1 to 9.9 nM. On the same count and under the same terms, in the case of `CCCC[C@H]1C(=O)N2CCC[C@@H]2C(=O)N[C@@H](CC(=O)O)C(=O)N[C@@H](C(C)C)C(=O)N(C)[C@@H](Cc2ccccc2)C(=O)N[C@@H](CCCN)C(=O)N2CCC[C@@H]2C(=O)N[C@@H](Cc2c[nH]c3ccccc23)C(=O)N[C@@H](Cc2ccc(O)cc2)C(=O)N[C@@H](CC(C)C)C(=O)N[C@H](C(=O)NCC(N)=O)CSCC(=O)N[C@@H](Cc2ccccc2)C(=O)N(C)[C@@H](Cc2ccccc2)C(=O)N1C` [Example 10103] ({CH2CO}-F[NMeF][NMeNle][dP]DV[NMeF][Orn][dP]WYLCG-NH2; thioether N-13) it was 1 to 9.9 nM. In the case of `CCCC[C@H]1C(=O)N2CCC[C@@H]2C(=O)N[C@@H](CC(=O)O)C(=O)N[C@@H](C(C)C)C(=O)N(C)[C@@H](Cc2ccccc2)C(=O)N[C@@H](CCCN)C(=O)N2CCC[C@@H]2C(=O)N[C@@H](Cc2c[nH]c3ccccc23)C(=O)N[C@@H](Cc2ccc(O)cc2)C(=O)N[C@@H](CC(C)C)C(=O)N[C@H](C(=O)NCC(N)=O)CSCC(=O)N[C@@H](Cc2cc(F)c(F)c(F)c2)C(=O)N(C)[C@@H](Cc2ccccc2)C(=O)N1C` [Example 10104] ({CH2CO}-[Phe(3,4,5-F3)][NMeF][NMeNle][dP]DV[NMeF][Orn][dP]WYLCG-NH2; thioether N-13), the IC50 under setting [1] is 1 to 9.9 nM.
